{
  "source": "paper PMC9975698",
  "about": "“Hyperoside alleviates toxicity of β-amyloid via endoplasmic reticulum-mitochondrial calcium signal transduction cascade in APP/PS1 double transgenic Alzheimer's disease mice” (Redox Biology, 2023)",
  "key": {"APP/PS1 mice [1]": {"tested_on": "APP/PS1 mice", "assay": "Western blot of APP/GFAP/APP-β/BACE1 in cortex and hippocampus lysates", "assay_type": "in vivo", "description": "After HYP treatment, the cells were lysed with RIPA. Protein concentrations were determined by Bio-Rad protein assay (Bio-Rad Laboratories, CA, USA). After electrophoretic separation, the gels were blotted and stained with primary antibodies. Binding of antibodies was visualized with peroxidase-coupled secondary antibodies using ECL Western Blotting detection reagents (Invitrogen, Scotland, UK). Band intensities were quantified using ImageJ software. Data were obtained from three independent experiments. All animal care and experimental procedures were performed in accordance with the “Institutional Animal Care and User Committee Guidelines” of the Macau University of Science and Technology. APP/PSEN1 (APP/PS1) mice (N000175) were purchased from the Nanjing Institute of Biomedical Sciences, Nanjing University, China, weighing 25 ± 5 g. The animals were housed in a temperature-controlled room with a 12 h light/dark cycle and given ad libitum food and water. Male mice were randomly divided into the following 6 experimental groups. (a) wild-type group (n = 6), (b) APP/PS1 group (n = 6), (c) HYP (20 mg/kg group) (n = 7), (d) HYP (40 mg/kg) group (n = 8), (e) HYP (80 mg/kg) group (n = 8) and (f) memantine (MEM) (10 mg/kg) positive control group (n = 8). […]"}, "HT22 cells [2]": {"tested_on": "HT22 cells", "assay": "ATP content measurement by LC-MS/MS", "assay_type": "cell-based", "conditions": "Aβ aggregates with HYP 20, 40, 80 μM, 24 h", "description": "HT22 cells were co-treated with Aβ aggregates and HYP (20–80 μM) for 24 h and washed with PBS. Each digested sample was re-suspended in 10 mL of ice-cold PBS, followed by centrifugation for 5 min (300 g, 4 °C). Cell pellets were then treated with 85% cold methanol (2 × 10^6 cells / 100 μL) containing 2 μM ATP-^13C10,^15N5, then vortexed for 1 min and placed on ice for 10 min. After centrifugation (13,000 g) at 4 °C for 15 min, the supernatant was transferred into another tube. The derivatization reaction was initiated by adding 75 μL of derivatization reagent MTBSTFA into 200 μL of cell lysis with 85% methanol and completed over 5 min with consistent vortex. Derivatization samples were then centrifuged (13,000 g) at 4 °C for 10 min, and 25 μL of the supernatant was injected into LC-MS/MS system for analysis."}, "[3]": {"tested_on": "Aβ oligomers, Aβ fibrils, Aβ (1–16)", "assay": "Dot blot of Aβ forms in HT22 cells", "assay_type": "cell-based", "description": "4 μL of prepared cell or animal sample protein solutions were dotted for adsorption onto methanol-pre-activated PVDF membranes and then blocked with 5% non-fat dry milk in Tris-buffered saline and Tween 20 for 1 h. The samples were incubated overnight at 4 °C with anti-amyloid fibril primary antibody [mOC87] (Abcam, MA, USA), anti-amyloid oligomer A11 (Invitrogen, CA, USA) or purified anti-β-amyloid (1–16) antibody (clone 6E10) (Biolegend, CA, USA) (1:1000), followed by HRP-conjugated secondary antibody. Protein bands were detected using Super Signal Sensitive ECL Western Blotting Detection Reagent (Beyotime, Beijing, China) and observed using a gel imaging device (Amersham Imager 800, GE, Tokyo, Japan)."}, "APP": {"tested_on": "APP", "assay": "Real-time quantitative PCR of APP mRNA in HT22 cells", "assay_type": "cell-based", "conditions": "HT22 cells after HYP treatment", "description": "RNA was extracted from the HT22 cell using FavorPrep™ Blood/Cultured Cell Total RNA Purification Mini Kit (Favorgen Biotech Corp.). RNA concentration was determined using the NanoDrop 2000c Spectrophotometer (Thermo Scientific). 1 μg of total RNA was used to reverse transcribe to its corresponding cDNA by using the Transcriptor Universal cDNA Master mix (Roche, USA). Quantitative PCR was then performed with the addition of PowerUp™ SYBR® Green Master Mix (Applied Biosystems) using the ViiA™ 7 Real-Time PCR System (Applied Biosystems). Specific primers (Tech Dragon Ltd., Hong Kong) were designed by employing ThermoFisher Scientific's online OligoPerfect™ Designer software and then verified with NCBI's Primer‐BLAST software to confirm specific recognition of the target genes. Gene expression levels were normalized to actin (control) and analyzed using the ΔΔCT method. Three independent experiments with three replicates per group were analyzed for each primer."}, "HT22 cells [4]": {"tested_on": "HT22 cells", "assay": "Cytotoxicity (MTT) assay", "assay_type": "cell-based", "description": "Cytotoxicity was assessed using the MTT (5.0 mg/mL) assay. 4 × 10^3 HT22 cells per well were seeded in 96-well plates. After overnight incubation, cells were treated with Aβ aggregates (30 μM) for 48 h with or without the presence of HYP (20–80 μM). Cells were treated with DMSO as a control. Subsequently, MTT (10 μL) was added to each well for 4 h, followed by the addition of 100 μL of lysis buffer (10% SDS in 0.01 mol/L hydrochloric acid) and overnight incubation. The absorbance was measured at 570 nm the next day. The formula was calculated as a percentage of cell viability: Cell viability (%) = A (treatded) / A (control) × 100%. Data were obtained from three independent experiments in triplicate."}, "APP/PS1 mice [5]": {"tested_on": "APP/PS1 mice", "assay": "Thioflavin S staining of Aβ plaques in brain", "assay_type": "in vivo", "conditions": "cortex and hippocampus, HYP 20/40/80 mg/kg nasal, 8 weeks", "description": "All animal care and experimental procedures were performed in accordance with the “Institutional Animal Care and User Committee Guidelines” of the Macau University of Science and Technology. APP/PSEN1 (APP/PS1) mice (N000175) were purchased from the Nanjing Institute of Biomedical Sciences, Nanjing University, China, weighing 25 ± 5 g. The animals were housed in a temperature-controlled room with a 12 h light/dark cycle and given ad libitum food and water. Male mice were randomly divided into the following 6 experimental groups. (a) wild-type group (n = 6), (b) APP/PS1 group (n = 6), (c) HYP (20 mg/kg group) (n = 7), (d) HYP (40 mg/kg) group (n = 8), (e) HYP (80 mg/kg) group (n = 8) and (f) memantine (MEM) (10 mg/kg) positive control group (n = 8). HYP was dissolved in the solvent containing 10% DMSO, 40% PEG300 and 5% Tween-80 in PBS, and administrated via nasal injection for every 3 days with a volume of 0.5 μL/g of body weight for 8 consecutive weeks. Paraffin sections of the brain were washed three times with PBS after dewaxing and then stained with THS dissolved in 50% alcohol for 7 min, followed by 50% alcohol solution for washing. Sections were then air-dried and sealed with neutral gel for microscopic observation. Images were captured by API DeltaVision Live‐cell Imaging System (Applied Precision Inc., DC, USA)."}, "Solubility in water": {"assay": "Solubility in water", "assay_type": "physicochemical"}, "HT22 cells [6]": {"tested_on": "HT22 cells", "assay": "Mitochondrial membrane potential by JC-1", "assay_type": "cell-based", "excerpt": "The mitochondrial membrane potential of HT22 stained with 5,5′,6,6′-tetrachloro-1,1′,3,3′-tetraethylbenzimidazolyl cobalt iodide (JC-1) was observed by laser scanning confocal microscopy."}},
  "data": [
    {"smiles": "O=c1c(O[C@@H]2O[C@H](CO)[C@H](O)[C@H](O)[C@H]2O)c(-c2ccc(O)c(O)c2)oc2cc(O)cc(O)c12", "note": "[HYP, Quercetin-3-O-β-D-galactopyranoside]", "values": [
      {"measurement": "level of BACE1 and APP-β proteins", "setting": "APP/PS1 mice [1]", "value": "reduced the level of APP hydrolysis pathway-associated proteins such as BACE1 and APP-β"},
      {"measurement": "ATP content", "setting": "HT22 cells [2]", "value": "rescued the Aβ-induced decrease in mitochondrial ATP"},
      {"measurement": "level of different form of Aβ", "setting": "[3]; HT22 cells incubated with exogenous Aβ for 24 h", "value": "lowered the level of different form of Aβ"},
      {"measurement": "endogenous level of Aβ oligomers, Aβ fibrils and total Aβ (1–16)", "setting": "[3]; HT22 cells without exogenous Aβ", "value": "lowered the endogenous level of Aβ Oligomers (A11), Aβ Fibrils (mOC87) and total Aβ (1–16) (6E10)"},
      {"measurement": "mRNA transcriptional level of APP", "setting": "APP", "value": "no significant effect"},
      {"measurement": "cellular toxicity of HYP alone (MTT)", "setting": "HT22 cells [4]; HYP 20–80 μM", "value": "no obvious cellular toxicity was observed"},
      {"measurement": "cell viability with aggregated Aβ co-treatment (MTT and flow cytometry)", "setting": "HT22 cells [4]; HYP 20–80 μM + aggregated Aβ 30 μM", "value": "increased the cell viability in a dose-dependent manner"},
      {"measurement": "level of Aβ plaques (ThS)", "setting": "APP/PS1 mice [5]", "value": "reduced the level of Aβ plaques in the cortex and hippocampus of APP/PS1 mice in a dose-dependent manner"},
      {"measurement": "solubility in water", "setting": "Solubility in water", "value": "insoluble in water"},
      {"measurement": "mitochondrial membrane potential (ratio of aggregated and monomeric JC-1)", "setting": "HT22 cells [6]; Aβ aggregates + HYP 20–80 μM, 24 h", "value": "rescue the loss of mitochondrial membrane potential induced by Aβ aggregates in a dose-dependent manner"},
      {"measurement": "mitochondrial membrane potential (JC-1)", "setting": "HT22 cells [6]; HYP alone", "value": "no effect"}
    ]}
  ]
}
